PubChem BioAssay (NCI)
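1) Cells in 96-well plates. 2) Compound, 48 h, 5 concentrations. 3) Linear interpolation between surrounding doses. 4) Unreached endpoint = highest concentration. GI50 is the concentration that inhibits growth by half. TGI marks complete inhibition of growth.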

What was measured:
Assay in all cases: NCI tumour cell line growth inhibition, 48 h
[1] = test system: HL-60(TB) leukemia
[2] = test system: HCT-116 colon
[3] = test system: SK-OV-3 ovarian
[4] = test system: HT29 colon
[5] = test system: NCI/ADR-RES ovarian
[6] = test system: TK-10 renal
[7] = test system: SF-539 CNS
[8] = test system: EKVX NSCLC
[9] = test system: UACC-257 melanoma
[10] = test system: CAKI-1 renal

| SMILES | GI50 [1] [µM] | TGI [1] [µM] | GI50 [2] [µM] | TGI [2] [µM] | GI50 [3] [µM] | TGI [3] [µM] | GI50 [4] [µM] | TGI [4] [µM] | GI50 [5] [µM] | TGI [5] [µM] | GI50 [6] [µM] | TGI [6] [µM] | GI50 [7] [µM] | TGI [7] [µM] | GI50 [8] [µM] | TGI [8] [µM] | GI50 [9] [µM] | TGI [9] [µM] | GI50 [10] [µM] | TGI [10] [µM] |
| --- | --- | --- | --- | --- | --- | --- | --- | --- | --- | --- | --- | --- | --- | --- | --- | --- | --- | --- | --- | --- |
| CN1CCN(C(=O)OCc2nc3c(N4CCOCC4)nc(-c4ccccc4)nc3n2C)CC1 | 0.753 | 2.66 | 0.207 | 0.648 | 2.97 | 9.13 | 0.512 | 2.24 | 1.82 | 6.03 | 1.67 | 3.12 | 1.33 | 2.6 | 1.39 | 2.94 | 1.47 | 3.17 | 0.471 | 1.83 |
| N#C/C(=C\c1ccc([N+](=O)[O-])cc1)n1nnc2cc(F)c(F)cc21 | 2.36 | 5.78 | 1.54 | 3.01 | 2.85 | 11.4 | 1.87 | 3.64 | 2.96 | 11.6 | 1.89 | 3.33 | 1.74 | 3.27 | 1.7 | 3.56 | 2.17 | 5.65 | 1.54 | 2.92 |
| O=C(NCCCNc1cc(-c2cn(-c3ccccc3)nc2-c2cccc(O)c2)ccn1)c1ccc(F)cc1 | 2.46 | 6.49 | 2.14 | 7.38 | 3.39 | 24.2 | 1.7 | 5.43 | 2.2 | 5.75 | 4.47 | 26.3 | 2.15 | 5.41 | 3.7 | 69.1 | 1.8 | 3.87 | 2.84 | 21.2 |
| CCCC(c1cc(C(C)(C)C)c(O)cc1C)c1cc(C(C)(C)C)c(O)cc1C |  | 4.94 |  | 3.96 |  | 12.4 |  | 17.5 |  | 12.1 |  | 9.55 |  | 4.7 |  | 7.75 |  | 5.69 |  | 15.3 |
| CC(C)[C@]12O[C@H]1[C@@H]1O[C@]13[C@]1(O[C@H]1C[C@H]1C4=C(CC[C@@]13C)C(=O)OC4)[C@@H]2OC(=O)OC(C)(C)C | < 0.01 | 0.805 | < 0.0107 | > 100 | 0.0402 | > 100 | < 0.0121 |  | 0.0286 | 10.5 | 0.0329 | > 100 | 0.0217 | 0.294 | 0.0573 | > 100 | 0.0176 | 0.0544 | 0.0226 | > 100 |
| COc1ccc2c(c1)OC(N)=C(C#N)C2c1ccc(F)c(F)c1 (stereo unspecified) | 0.272 | 0.716 | 0.41 | 25.5 | 0.495 | > 64.1 | 0.318 | 4.77 | 0.351 | 10.7 | 14.7 | > 100 | 0.271 | 1.05 | 0.751 | > 100 | 0.408 | > 100 | 0.394 | > 100 |
| Cc1cc(C)c2c(=O)cc(-c3ccc(F)cc3)[nH]c2n1 | 15.5 | 37.4 | 50 | > 100 |  | > 100 |  | > 100 |  | > 100 |  | > 100 |  | > 100 |  | > 100 |  | > 100 |  | > 100 |
| OC1CCC(COC(c2ccccc2)(c2ccccc2)c2ccccc2)O1 (stereo unspecified) |  | 39.7 |  | 30.4 |  | 36.6 |  | 33.7 |  | 48.3 |  | > 10 |  | 32.5 |  | > 10 |  | 34.1 |  | 30.9 |
| NS(=O)(=O)c1ccc(N=Nc2c(O)[nH]c3cccc(CCc4ccncc4)c23)cc1 | > 25 | > 25 | > 25 | > 25 | > 25 | > 25 | > 25 | > 25 | > 25 | > 25 | > 25 | > 25 | > 25 | > 25 | > 25 | > 25 | > 25 | > 25 | > 25 | > 25 |
| COc1cc(C)cc(C(=O)OCc2ccccc2)c1C1=C(Cl)C(=O)C(Cl)=CC1=O |  | 2.55 |  | > 10 |  | > 10 |  | > 10 |  | > 10 |  | > 10 |  | > 10 |  | > 10 |  | > 10 |  | > 10 |
| COc1ccc(C(=O)O[C@@H]2CCN3CC[C@H](C)[C@H]23)cc1 |  | > 100 |  | > 100 |  | > 100 |  | > 100 |  | > 100 |  | > 100 |  | > 100 |  | > 100 |  | > 100 |  | > 100 |
